Assay results reported in patent US10556879B2, “Retinoid compound, preparation method therefor, intermediates thereof and application thereof” (SHANGHAI INSTITUTE OF ORGANIC CHEMISTRY, CHINESE ACADEMY OF …, priority 2016, dated 2020).
Entries after “also recorded” stand apart in the source; their conditions may differ. Like-named read-outs stand apart in the source and are kept apart here.

How the values were obtained:
[1] = system: subcutaneous implantation tumor of B16-F1 melanoma; assay: Subcutaneous implantation model of B16-F1 melanoma in immunocompetent mice; type: in vivo, mice (C57BL/6); details: for body weight of the mice / dissection of peritoneal/abdominal cavity / toxic side effects: mouse, in vivo
Method: A subcutaneous implantation model of B16-F1 melanoma in immunocompetent mice (C57BL/6, female, 6-8 weeks) was established to study the inhibitory activity of compound WYC-103 on the tumor in situ. Firstly, B16-F1 cells were incubated within 3D fibrin gel (90-Pa in gel stiffness) that was immersed in culture medium for 5 days, and the desired tumor-repopulating cells were screened. Subsequently, the culture medium was respectively treated with collagenase and neutral protease II, and the tumor-repopulating cells of B16-F1 melanoma were released, then the obtained repopulating cells were transferred to a freshly prepared medium to be re-suspended and maintained at single-cell state.
Six immunocompetent mice were randomly divided into two groups which were respectively the treatment group and the DMSO negative control group. Mice were subcutaneously injected with 30,000 tumor-repopulating cells of melanoma to establish a subcutaneous implantation model of melanoma. Subsequently, Mice were administered via tail vein injection based on the body weight and the blood volume of the mice. From day 0, mice in the treatment group were administrated with WYC-103 once every 2 days at a blood concentration of 10 μM and fed normally, observing the survival of the mice. […] According to the statistical analysis, the tumor volume in the treatment group was only 50% of the control group (FIG. 12).
This experiment was repeated in order to further confirm the inhibitory activity of WYC-103 on subcutaneous implantation tumor of B16-F1 melanoma. In the present experiment, 18 immunocompetent mice (C57BL/6, female, 6-8 weeks) were randomly divided into three groups which were respectively the treatment group, the positive control group (BMS-453 was used as the positive drug) and the DMSO negative control group. Subsequently, Mice were administered via tail vein injection based on the body weight and the blood volume of the mice. From day 0, mice in the treatment group were administrated with WYC-103 once every 2 days at a blood concentration of 10 μM; mice in the positive control group were administered with BMS-453 (WYC-114) as the positive drug in the same route of administration; mice in the negative control group was administered with 0.1% DMSO in a same route of administration.

[2] = system: tumor-repopulating cells of B16-F1 melanoma; assay: Inhibitory activity on proliferation of tumor-repopulating cells (TRCs) of B16-F1 melanoma in 3D fibrin gel; type: cell-based; details: Mus musculus; for IC50: B16-F1, dose-response curve, colony tumor volume, read-out: IC50 of inhibition on TRCs of B16-F1 melanoma/μM
Method: B16-F1 Melanoma cells were incubated with 3D fibrin gel medium (90-Pa) for 5 days, and the desired tumor-repopulating cells of melanoma were screened (Nat. Mater. 2012, 11, 734). Subsequently, the culture medium was respectively treated with collagenase and neutral protease II, and the tumor-repopulating cells of B16-F1 melanoma were released, then the obtained repopulating cells were transferred to a freshly prepared medium to be resuspended and maintained at single-cell state. The tumor-repopulating cells of B16-F1 melanoma were inoculated in 3D fibrin gel medium (90-Pa) for 5 days, with 0.1% DMSO as the negative control group, Tazarotene and Bexarotene as the positive control drugs respectively, […] for 5 days. The colony tumor size was measured and calculated, and the inhibition rate of each drug on the tumor-repopulating cells of B16-F1 melanoma was calculated. The results of inhibitory activity of the compound of the present invention on the proliferation of tumor-repopulating cells of B16-F1 melanoma were shown in Table 2 below.

[3] = system: metastatic melanoma in the lung; assay: Metastatic melanoma in the lung model, 3000 tumor-repopulating cells via tail vein (WYC-103); type: in vivo; details: blood concentration 10 μM
Excerpt: A metastatic melanoma model in the mouse was established to study whether WYC-103 could inhibit metastatic melanoma in the lung thus prevent secondary tumorigenesis. Firstly, 12 normally immunocompetent mice (C57BL/6, female, 6-8 weeks) were randomly selected and injected via the tail vein with 3000 tumor-repopulating cells of melanoma to establish a metastatic melanoma model in the mouse. The model mice were randomly divided into two groups which were respectively the treatment group and the negative control group. The mice were administered with WYC-103 (the treatment group) and DMSO (the negative control group) via tail vein injection once every 2 days at a blood concentration of 10 μM based on the body weight and the blood volume of the mice.

[4] = system: tumor-repopulating cells of MDA-MB-231 breast cancer; assay: Inhibition of proliferation of tumor-repopulating cells, colony tumor volume in 3D fibrin gel; type: cell-based, human; details: MDA-MB-231 TRCs
Method: (§1) Therefore, we further studied the inhibitory activity of this compound against tumor-repopulating cells of six other kinds of human tumor, including A549 lung cancer cell, MCF-7 breast cancer cell, MDA-MB-435S melanoma cell, A2780 ovarian cancer cell, Hs-746T gastric cancer cell, MDA-MB-231 breast cancer cell.
(§2) The above cancer cells were incubated with 3D fibrin gel medium (90-Pa) for 5 days, and the desired tumor-repopulating cells were screened. Subsequently, the culture medium was respectively treated with collagenase and neutral protease II, and the tumor-repopulating cells of B16-F1 melanoma were released, then the obtained repopulating cells were transferred to a freshly prepared medium to be resuspended and maintained at single-cell state. The tumor-repopulating cells of individual tumor were inoculated in 3D fibrin gel medium (90-Pa) for 5 days, with 0.1% DMSO as the negative control group (represented by DMSO group in FIGS. 3-8), the drug-free group as vehicle control group (represented by None group in FIGS. 3-8), and the study was performed by beginning administrating on the day 0 and the 3rd day respectively, and the colony tumor volume was measured and calculated.
as §2, with “The above human tumor cells were” for “The above cancer cells were”, “cells of B16-F1 melanoma were inoculated” for “cells of individual tumor were inoculated”, “group in FIG. 9), the drug-free” for “group in FIGS. 3-8), the drug-free”, “measured and calculated, beginning administrating from the 3rd day at a concentration of 0.1 μM, 1.0 μM, and 10 μM respectively, the colony tumor volume was measured and calculated.” for “measured and calculated.”

[5] = system: tumor-repopulating cells of A2780 ovarian cancer; assay: as above; type: cell-based, human; details: A2780 TRCs, 10 μM
Method: as §1, §2
as §2, with “The above human tumor cells were” for “The above cancer cells were”, “cells of B16-F1 melanoma were inoculated” for “cells of individual tumor were inoculated”, “group in FIG. 9), the drug-free” for “group in FIGS. 3-8), the drug-free”, “measured and calculated, beginning administrating from the 3rd day at a concentration of 0.1 μM, 1.0 μM, and 10 μM respectively, the colony tumor volume was measured and calculated.” for “measured and calculated.”

B16-F1 melanoma cells = assay: In vitro effect on B16-F1 melanoma cells (proliferation, apoptosis) in the toxicity study; type: cell-based; details: 10 μM
Method: (§3) The 3T3 mouse embryonic fibroblast cells and B16-F1 melanoma cells were used as the model to study in vitro toxicity of WYC-209 and WYC-331 respectively. The effect of compound WYC-209 and WYC-331 on the proliferation of 3T3 mouse embryonic fibroblast cells and B16-F1 melanoma cells were studied at a concentration of 10 μM.

[6] = system: 3T3 mouse embryonic fibroblast cells; assay: In vitro toxicity on normal cells (proliferation, apoptosis); type: cell-based; details: 10 μM
Method: as §3

[7] = B16-F1, 120 h, 10 μM, incubated 5 days, colony tumor size, read-out: Inhibition rate on TRCs of B16-F1 melanoma at a concentration of 10 μM (%)
[8] = B16-F1, 10 μM (Table 3), read-out: Inhibition rate on TRCs of B16-F1 melanoma at a concentration of 10 μM/%

| IC50 [2] [µM] | SMILES | body weight of the mice [1] | dissection of peritoneal/abdominal cavity [1] | toxic side effects [1] | mice died ([1]; repeated experiment, on the 20th day) | inhibition at 10 µM [2, 7] [%] | inhibition at 10 µM [2, 8] [%] | tumor volume in the treatment group relative to the control group ([1]; first experiment, after 19 days, tail vein injection every 2 days, blood concentration 10 μM) [%] | tumor volume in the treatment group relative to the negative control group ([1]; repeated experiment, 26th day, tail vein injection every 2 days, blood concentration 10 μM) [%] | mice died ([1]; repeated experiment, on the 26th day) [%] | average lung weight relative to the negative control group [3] | toxic side effects ([3]; whole experiment) | efficiency of preventing the occurrence of metastatic melanoma in the lung ([3]; tail vein injection every 2 days) [%] | growth trend of colony tumor [4] | volume of colony tumor relative to None group ([4]; 10 μM) | volume of colony tumor relative to None group [5] | effect on proliferation of B16-F1 melanoma cells (B16-F1 melanoma cells) | induction of apoptosis of B16-F1 melanoma cells (B16-F1 melanoma cells) | effect on proliferation of 3T3 mouse embryonic fibroblast cells [6] | induction of apoptosis of 3T3 mouse embryonic fibroblast cells [6] |
| --- | --- | --- | --- | --- | --- | --- | --- | --- | --- | --- | --- | --- | --- | --- | --- | --- | --- | --- | --- | --- |
|  | CC1(C)CC=C(c2ccccc2)c2cc(/C=C/c3ccc(C(=O)O)cc3)ccc21 [BMS-453, reference compound] | significantly reduced | a large number of abnormal foamy structure appeared in the peritoneal cavity | a greater toxic side effect | all the mice in the positive control group died |  |  |  |  |  |  |  |  |  |  |  |  |  |  |  |
|  | CCOC(=O)c1ccc(C#Cc2ccc3c(c2)C(C)(C)CCS3)cc1O [WYC-103, ethyl 4-((4,4-dimethylthiochroman-6-yl)ethynyl)-2-hydroxybenzoate] | stable and balanced | No abnormalities | no obvious toxic side effects |  | 86.8 | 86.8 | 50 | 50 | 50 | ⅓ | no obvious toxic side effects | 100 |  |  |  |  |  |  |  |
| 0.017 | CCOC(=O)c1cnc(C#Cc2ccc3c(c2)C(C)(C)CCC3(C)C)nc1 [WYC-331, ethyl 2-((5,5,8,8-tetramethyl-5,6,7,8-tetrahydronaphth-2-yl)ethynyl)pyrimidin-5-carboxylate] |  |  |  |  | 96 | 96 |  |  |  |  |  |  | reverse the growth trend of colony tumor | 10-15% | 10-15% | strongly inhibited the proliferation | did not exhibit significant apoptosis-inducing effect | no effect on the growth of 3T3 cell clones | did not exhibit significant apoptosis-inducing effect; also recorded: could not induce apoptosis |
| 2.12 | COC(=O)c1ccc(C#Cc2ccc3c(c2)C(C)(C)CCS3)c(O)c1 [WYC-107, methyl 4-((4,4-dimethylthiochroman-6-yl)ethynyl)-3-hydroxybenzoate] |  |  |  |  | 75 | 75 |  |  |  |  |  |  |  |  |  |  |  |  |  |
